Tests used:
BDNF^Met/Met mice = test: Novelty-induced hypophagia after long-term fluoxetine in adult mice; assay type: in vivo; settings: adult P60 BDNF^Met/Met mice; fluoxetine orally 18 mg/kg of body weight per day for 21 days
Description: A common treatment for depression and anxiety disorders in humans is administering serotonin reuptake inhibitors (SSRI's), for which one postulated mechanism of action involves increasing BDNF levels (R. S. Duman, L. M. Monteggia, Biol Psychiatry 59, 1116 (Jun. 15, 2006)). Adult P60 BDNF^Met/Met mice were treated orally with fluoxetine (18 mg/kg of body weight per day) or vehicle for 21 days before assessment in novelty-induced hypophagia. In this conflict test, mice are trained to approach a reward (sweetened milk) in their home cage and then placed in a novel brightly lit cage. The latency to approach and drink the sweetened milk is a measure of the anxiety-related behavior associated with this task (S. C. Dulawa, K. A. Holick, B. Gundersen, R. Hen, Neuropsychopharmacology 29, 1321 (July, 2004)).

P60 BDNF^Met/Met mice = test: Two anxiety tests, response to chronic fluoxetine; assay type: in vivo
Excerpt: It was chosen to continue to use fluoxetine as it is the prototypic SSRI that has been established to increase BDNF levels, and for which a significant amount of clinical data on response to affective disorders.

BDNF^Met mice = test: Elevated plus maze at P90 after early life fluoxetine (P21-P40); assay type: in vivo; settings: fluoxetine 18 mg/kg per day via drinking water P21-P40, tested at P90
Excerpt: (§1) FIG. 9. Anxiety-related behavior after early life flouxetine in BDNF Val66Met mice in the elevated plus maze test. (A). Percentage time spent in the open arm (B) and percentage of open arm entries in the plus maze, as well as (C) total distance traveled in wildtype) WT and BDNF^Met/Met (Met/Met) mice treated with water (H2O) or with flouxetine (FLX) from P21-P40. All results are presented as a mean±SEM determined from analysis of 5 mice/genotype (*p<0.05), Student's t test.
(§2) The feasibility of these timed pharmacological studies was first assessed. To BDNFMet mice, chronic fluoxetine (18 mg/kg per day) was administered via the drinking water from P21 (post-weaning)-P40 (adolescence) (FIG. 8) for a duration of time established to produce increased BDNF levels and anti-anxiety effects in adult mice [Dulawa, S. C., Holick, K. A., Gundersen, B., and Hen, R. (2004). Effects of chronic fluoxetine in animal models of anxiety and depression. Neuropsychopharmacology 29, 1321-1330; Duman, R. S., and Monteggia, L. M. (2006). A neurotrophic model for stress-related mood disorders. Biol Psychiatry 59, 1116-1127].
(§3) Early-life blockade of the 5-HT transporter alters emotional behavior in adult mice. Science 306, 879-881], which was not observed by this P21-P40 timed treatment.

wildtype mice = test: as above; assay type: in vivo; settings: fluoxetine 18 mg/kg per day via drinking water P21-P40, tested at P90
Excerpt: as §1, §2, §3

mice = settings: fluoxetine treatment at P4-P21; Ansorge et al. 2004; cited from earlier work

With CNCCC(Oc1ccc(C(F)(F)F)cc1)c1ccccc1 (centres unmarked) [fluoxetine] as the compound, how does the “latency to drink in the novel cage” value (BDNF^Met/Met mice) read?
Its value is “did not significantly decrease”.

And the “response to chronic fluoxetine as measured by two anxiety tests” value (P60 BDNF^Met/Met mice)?
The value was “decreased response”.

What about the “anxiety-related behavior in the elevated plus maze test” value (BDNF^Met mice) of the same compound?
Its value is “rescue of altered anxiety-related behavior”.

And the “anxiety-related behaviors in the elevated plus maze test” value (wildtype mice)?
Its value is “No effects were observed”.

And the anxiety-related behaviors (mice)?
Its anxiety-related behaviors is “increased anxiety-related behaviors”.
